# Assay results taken from patent publication US4742049A, “Semisynthetic erythromycin antibiotics” (Abbott Laboratories, priority 1986, dated 1988).
# “And” between values parts separate entries of the source, which are not always exact repeats. Identical values can stand only once. Like-named read-outs stand apart in the source and are kept apart here.
# Key:
# Ent. aerogenes = assay: antimicrobial spectrum, agar dilution MIC; type: cell-based
# Staph. saprophyticus = assay: microbe, parasite or virus in culture; conditions: Staphylococcus saprophyticus, ATCC15305
# Procedure: (§1) Twelve petri dishes containing successive aqueous dilutions of the test compound mixed with 10 ml of sterilized Brain Heart Infusion agar (Difco 0418-01-5) are prepared. Each plate is inoculated with 1:100 (or 1:10 for slow-growing strains, primarily Micrococcus and Streptococcus) dilutions of up to 32 different microorganisms, using a Steers replicator block. The inoculated plates are incubated at 35°-37° C. for 20-24 hours. In addition, a control plate, using BHI agar containing no test compound, is prepared and incubated at the beginning and end of each test.
# (§2) An additional plate containing a compound having known susceptibility patterns for the organisms being tested and belonging to the same antibiotic class as the test compound is also prepared and incubated as a further control, as well as to provide test-to-test comparability.
# (§3) After incubation, each disk is read. The MIC is defined as the lowest concentration of drug yielding no growth, a slight haze, or sparsely isolated colonies on the inoculum spot as compared to the growth control.
# Klebsiella pneumoniae = assay: antimicrobial spectrum, agar dilution MIC; type: cell-based; conditions: strain 8045, BHI agar, 20-24 hours
# Pseudomonas cepacia = assay: antimicrobial spectrum, agar dilution MIC; type: cell-based; conditions: strain 2961, BHI agar, 20-24 hours
# Procedure: Erythromycin A was used for this purpose.
# After incubation, each disk is read.
# Strep. pyogenes = assay: antimicrobial spectrum, agar dilution MIC; type: cell-based; conditions: BHI agar, 20-24 hours
# Procedure: as §1, §2, §3
# Strep. faecium = assay: antimicrobial spectrum, agar dilution MIC; type: cell-based; conditions: Enterococcus faecium, BHI agar, 20-24 hours
# Procedure: as §1, §2, §3
# Strep. agalactiae = assay: antimicrobial spectrum, agar dilution MIC; type: cell-based; conditions: Streptococcus agalactiae; strain CMX 633; BHI agar, 20-24 hours; read-out: MIC
# Procedure: as §1, §2, §3
# Staph. aureus = assay: antimicrobial spectrum, agar dilution MIC; type: cell-based; conditions: Staphylococcus aureus, BHI agar, 20-24 hours
# Procedure: as §1, §2, §3
# Staph. epidermidis = assay: antimicrobial spectrum, agar dilution MIC; type: cell-based; conditions: Staphylococcus epidermidis, BHI agar, 20-24 hours
# Procedure: as §1, §2, §3
# Strep. faecalis = assay: antimicrobial spectrum, agar dilution MIC; type: cell-based; conditions: Enterococcus faecalis, BHI agar, 20-24 hours
# Procedure: as §1, §2, §3
# Strep. pneumoniae = assay: antimicrobial spectrum, agar dilution MIC; type: cell-based; conditions: Streptococcus pneumoniae, BHI agar, 20-24 hours
# Procedure: as §1, §2, §3
# Pseudomonas aeruginosa = assay: antimicrobial spectrum, agar dilution MIC; type: cell-based; conditions: BHI agar, 20-24 hours
# Procedure: as §1, §2, §3
# Strep. bovis = assay: antimicrobial spectrum, agar dilution MIC; type: cell-based; conditions: Streptococcus equinus, strain A5169; BHI agar, 20-24 hours; read-out: MIC
# Procedure: as §1, §2, §3
# Providencia stuartii = assay: antimicrobial spectrum, agar dilution MIC; type: cell-based; conditions: strain CMX 640, BHI agar, 20-24 hours
# Procedure: as §1, §2, §3
# Staph. aureus NCTC 10649 = assay: acute mouse protection test; conditions: for ED50: Staphylococcus aureus, NCTC10649, in Mus musculus, 168 h, dosed 1 and 5 hours post-infection, observed 7 days; for # Died: ten mice
# Procedure: The acute mouse protection test is conducted on ten mice with each of three levels of drug.
# The acute mouse protection test is conducted on female, Swiss albino mice, 18-20 grams in weight. The mice are injected intraperitoneally with an 18-hour culture of the indicated test organism diluted sufficiently to provide the desired LD50 value. To check the potency of the inoculum, a titration of the indicated test organism is carried out in control animals. […] The ED50 values are calculated using the mortality data collected.
# Micrococcus luteus = assay: antimicrobial spectrum, agar dilution MIC; type: cell-based; conditions: strain 4698, BHI agar, 20-24 hours
smiles,measurement,setting,value
CC[C@H]1OC(=O)[C@H](C)[C@@H](O[C@H]2C[C@@](C)(OC)[C@@H](O)[C@H](C)O2)[C@H](C)[C@@H](O[C@@H]2O[C@H](C)C[C@H](N(C)C)[C@H]2O)[C@](C)(O)C[C@@H](C)C(=O)[C@H](C)[C@@H](O)[C@]1(C)O [Erythromycin A],MIC,"Ent. aerogenes; Klebsiella aerogenes, ATCC10348",100 µg/mL
same,MIC,"Ent. aerogenes; Klebsiella aerogenes, ATCC13048, strain ATCC 13048, BHI agar, 20-24 hours, read-out: MIC",50 µg/mL
same,MIC,"Ent. aerogenes; strain ATCC 10348, BHI agar, 20-24 hours",50 µg/mL
same,MIC,Staph. saprophyticus,0.03 µg/mL
same,MIC,Klebsiella pneumoniae,50 µg/mL
same,MIC,"Pseudomonas cepacia; Burkholderia cepacia, read-out: MIC",200 µg/mL
same,MIC,Pseudomonas cepacia,> 100 µg/mL
same,MIC,"Strep. pyogenes; Streptococcus pyogenes, strain 930, read-out: MIC",> 200 µg/mL
same,MIC,"Strep. pyogenes; Streptococcus pyogenes, strain C203, read-out: MIC",0.002 µg/mL
same,MIC,"Strep. pyogenes; Streptococcus pyogenes, strain EES61, read-out: MIC",0.06 µg/mL
same,MIC,"Strep. pyogenes; Streptococcus pyogenes, strain M79061-98",1 µg/mL
same,MIC,"Strep. pyogenes; Streptococcus pyogenes, strain M79061-139, read-out: MIC",0.015 µg/mL
same,MIC,"Strep. pyogenes; Streptococcus pyogenes, strain M79061-140, read-out: MIC",0.008 µg/mL
same,MIC,Strep. pyogenes; strain 930,> 100 µg/mL
same,MIC,"Strep. faecium; ATCC8043, strain ATCC 8043",0.1 µg/mL
same,MIC,"Strep. faecium; ATCC8043, strain ATCC 8043, read-out: MIC",0.06 µg/mL
same,MIC,Strep. agalactiae,0.015 µg/mL
same,MIC,"Staph. aureus; ATCC6538P, strain ATCC 6538P, read-out: MIC",0.12 µg/mL
same,MIC,"Staph. aureus; ATCC25923, strain ATCC 25923, read-out: MIC",0.06 µg/mL
same,MIC,"Staph. aureus; NCTC10649, strain NCTC 10649, read-out: MIC",0.06 µg/mL
same,MIC,Staph. aureus; strain 45 RAR 2,0.2 µg/mL
same,MIC,"Staph. aureus; strain 642A, read-out: MIC",0.12 µg/mL
same,MIC,"Staph. aureus; strain A5177, read-out: MIC",0.78 µg/mL
same,MIC,"Staph. aureus; strain CMX 686B, read-out: MIC",0.12 µg/mL
same,MIC,"Staph. aureus; strain CMX 705, read-out: MIC",0.06 µg/mL
same,MIC,"Staph. aureus; strain CMX 730A, read-out: MIC",0.06 µg/mL
same,MIC,"Staph. aureus; strain CMX 739A, read-out: MIC",0.06 µg/mL
same,MIC,"Staph. aureus; strain GYR 1150, read-out: MIC",0.06 µg/mL
same,MIC,"Staph. aureus; strain GYR 1162, read-out: MIC",0.06 µg/mL
same,MIC,"Staph. epidermidis; strain 3519, read-out: MIC",0.21 µg/mL
same,MIC,Staph. epidermidis; strain 3519 RARI,0.2 µg/mL
same,MIC,"Staph. epidermidis; strain CMX 728, read-out: MIC",0.06 µg/mL
same,MIC,"Staph. epidermidis; strain GYR 1151, read-out: MIC",0.12 µg/mL
same,MIC,Strep. faecalis; strain CMX 663F,2 µg/mL
same,MIC,Strep. faecalis; strain CMX 729G,0.5 µg/mL
same,MIC,Strep. faecalis; strain CMX 736F,0.5 µg/mL
same,MIC,Strep. faecalis; strain GYR 1164,0.5 µg/mL
same,MIC,Strep. faecalis; strain GYR 1166,0.5 µg/mL
same,MIC,Strep. faecalis; strain GYR 1167,4 µg/mL
same,MIC,Strep. pneumoniae; strain 78-008107,32 µg/mL
same,MIC,"Strep. pneumoniae; strain CMX 635, read-out: MIC",0.015 µg/mL
same,MIC,"Strep. pneumoniae; strain CMX 698, read-out: MIC",0.008 µg/mL
same,MIC,"Pseudomonas aeruginosa; Pseudomonas aeruginosa, strain 5007",200 µg/mL
same,MIC,"Pseudomonas aeruginosa; Pseudomonas aeruginosa, strain BMH10",100 µg/mL
same,MIC,"Pseudomonas aeruginosa; Pseudomonas aeruginosa, strain K799/61",1.56 µg/mL
same,MIC,"Pseudomonas aeruginosa; Pseudomonas aeruginosa, strain K799/WT",200 µg/mL
same,MIC,Pseudomonas aeruginosa; strain 5007,> 100 µg/mL
same,MIC,Pseudomonas aeruginosa; strain K799/WT,> 100 µg/mL and 100 µg/mL
same,MIC,Strep. bovis,0.01 µg/mL
same,MIC,Providencia stuartii,> 100 µg/mL
same,MIC,Providencia stuartii; read-out: MIC,> 200 µg/mL
same,ED50,"Staph. aureus NCTC 10649; po, dosage medium Carboxymethylcellulose",48.8 mg/kg
same,ED50,"Staph. aureus NCTC 10649; po, dosage medium PBS",75.7 mg/kg
same,ED50,"Staph. aureus NCTC 10649; sc, subcutaneous, dosage medium Injectable solution",10.9 mg/kg
same,# Died,"Staph. aureus NCTC 10649; oral, Carboxymethylcellulose, 15.6 mg/kg",8
same,# Died,"Staph. aureus NCTC 10649; oral, Carboxymethylcellulose, 37.5 mg/kg",5
same,# Died,"Staph. aureus NCTC 10649; oral, Carboxymethylcellulose, 250.0 mg/kg",0
same,# Died,"Staph. aureus NCTC 10649; oral, PBS, 15.6 mg/kg",10
same,# Died,"Staph. aureus NCTC 10649; oral, PBS, 37.5 mg/kg",4
same,# Died,"Staph. aureus NCTC 10649; oral, PBS, 250.0 mg/kg",0
same,# Died,"Staph. aureus NCTC 10649; subcutaneous, Injectable solution, 2.5 mg/kg",10
same,# Died,"Staph. aureus NCTC 10649; subcutaneous, Injectable solution, 10.0 mg/kg",6
same,# Died,"Staph. aureus NCTC 10649; subcutaneous, Injectable solution, 40.0 mg/kg",0
same,MIC,Micrococcus luteus,0.1 µg/mL
